Source: patent US20200306216A1, “CURE FOR ALZHEIMER'S DISEASE” (priority 2019, published 2020)

Assay: Single-patient clinical case: combination therapy for Alzheimer's disease
Format: in vivo, human
Settings: overall outcome as stated by applicant
Experimental: A patient suffering from significant memory loss and vision loss was evaluated for treatment. The patient suffered a gradual decline in both short-term and long-term memory over at least three years. The patient also complained about vision loss over a period of about six years. The patient scored 11 out of 30 on a mental status exam, indicating dementia or other cognitive impairment. A clinical psychologist determined that the patient was oriented to person, but poorly oriented to place and time. […] The patient acknowledged having anger problems. The patent denied having anxiety, mania, or depression but acknowledged occasional suicidal ideation. They denied having any current intent to harm […]. The patient's spouse reported that the patient would sometimes sit and rock back-and-forth. They also reported that the patient would sometimes hit their head when upset. There was no evidence that the patient suffered from delusions or hallucinations, and there was no evidence of agnosia. The patient previously had coronary artery bypass surgery and also suffered from type 2 diabetes mellitus for multiple decades. […] The patient also suffered from hepatitis C, but was not previously treated. It was determined that the patient was only able to perceive light in both eyes. The patient's loss of vision was due to glaucoma and diabetic retinopathy. […]

Row | Compound | outcome of treatment of Alzheimer's disease
1 | COc1cc2c(cc1OC)C(=O)C(CC1CCN(Cc3ccccc3)CC1)C2 (centres unmarked) [donepezil] | unsuccessful
2 | CC12CC3CC(C)(C1)CC(N)(C3)C2 [memantine] | unsuccessful
